The values below come from the supplement of paper PMC10307832.

What all share (experiment): relative viability (nuclei count vs DMSO), 5 days (fraction); higher = more cells survive
Compound in the test “Carboplatin + Bortezomib”: C1CC(C1)(C(=O)O)C(=O)O.[NH2-].[NH2-].[Pt+2] [Carboplatin] + CC(C)C[C@H](NC(=O)[C@H](Cc1ccccc1)NC(=O)c1cnccn1)B(O)O [Bortezomib] (partner 0.002 µM)
A digest of the protocol: (§1)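 Each reported value is a median over duplicate plates. It expresses relative viability: treated-well nuclei count divided by vehicle-well nuclei count. Lung cancer cell lines in 1536-well plates were dosed by pin tool a day after seeding, alone with one drug or with a fixed anchor-drug dose plus five library-drug doses (not always all listed) in √10 steps, and nuclei were counted after 5 days.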

Compound in the test “Carboplatin + Dasatinib”: C1CC(C1)(C(=O)O)C(=O)O.[NH2-].[NH2-].[Pt+2] [Carboplatin] + Cc1nc(Nc2ncc(C(=O)Nc3c(C)cccc3Cl)s2)cc(N2CCN(CCO)CC2)n1 [Dasatinib] (partner 0.075 µM)
A digest of the protocol:
as §1

Compound in the test “Carboplatin + Phenformin”: C1CC(C1)(C(=O)O)C(=O)O.[NH2-].[NH2-].[Pt+2] [Carboplatin] + N=C(N)NC(=N)NCCc1ccccc1 [Phenformin] (partner 250 µM)
A digest of the protocol:
as §1

Compound in the test “GSK126 + Foretinib”: CC[C@H](C)N1C=C(C2=C(C=C(C=C21)C3=CN=C(C=C3)N4CCNCC4)C(=O)NCC5=C(C=C(NC5=O)C)C)C [GSK126] + COc1cc2c(Oc3ccc(NC(=O)C4(C(=O)Nc5ccc(F)cc5)CC4)cc3F)ccnc2cc1OCCCN1CCOCC1 [Foretinib] (partner 0.25 µM)
The method in brief: as §1

For the cell line UMC-11, the relative viability is 0.941 with Carboplatin + Bortezomib (first compound 0.08 µM); 0.904 with Carboplatin + Bortezomib (first compound 0.253 µM); 0.675 in the test with Carboplatin + Bortezomib (first compound 0.8 µM); 0.622 with Carboplatin + Bortezomib (first compound 2.53 µM); 0.382 with Carboplatin + Bortezomib (first compound 8 µM); 0.515 in the test with Carboplatin + Dasatinib (first compound 0.08 µM). The relative viability with Carboplatin + Dasatinib (first compound 0.253 µM) was found to be 0.501; with Carboplatin + Dasatinib (first compound 0.8 µM), 0.461; in the test with Carboplatin + Dasatinib (first compound 2.53 µM) it was 0.502; with Carboplatin + Dasatinib (first compound 8 µM) it was 0.491; with Carboplatin + Phenformin (first compound 0.08 µM), 0.346; in the test with Carboplatin + Phenformin (first compound 0.253 µM), 0.324. Also, the relative viability stood at 0.317 with Carboplatin + Phenformin (first compound 0.8 µM); 0.331 with Carboplatin + Phenformin (first compound 2.53 µM); 0.275 in the test with Carboplatin + Phenformin (first compound 8 µM); 1.04 with GSK126 + Foretinib (first compound 0.08 µM); 1.04 with GSK126 + Foretinib (first compound 0.253 µM); 1.02 with GSK126 + Foretinib (first compound 0.8 µM). Further, the relative viability was 1.03 with GSK126 + Foretinib (first compound 2.53 µM) and 1.19 with GSK126 + Foretinib (first compound 8 µM).
